Data: patent US11752125B2, “Anti-neuroinflammatory and protective compounds in Achillea fragrantissima” (THE STATE OF ISRAEL MINISTRY OF AGRICULTURE & RURAL …, priority 2013, dated 2023)

Assays:
[1] = tested on: N2a neuronal cells; test: Glutamate-induced ROS elevation in N2a cells; format: cell-based; settings: glutamate 100 μM, 20 hr
Protocol: 1. Plate N2a cells (10,000 cells/0.2 ml/well of 96 wells plate) in DMEM (high glucose, 225 ml), Opti-MEM (250 ml) containing 1% Fetal Bovine Serum, 2 mM L-Glutamine, 100 U/ml penicillin and 100 micrograms/mL streptomycin and incubate (37° C., 5% CO2) for 24 hr. 2. Replace growth medium with a fresh one containing 20 micromolars 2′7′-dichlorofluorescein diacetate (DCF-DA); 3. Incubate 30 min (37° C., 5% CO2); 4. Wash twice with PBS; 5. Replace with fresh medium; 6. Read fluorescence of “time 0” at 485 nm (Extinction) and 528 nm (Emmision). 7. Incubate the cultured cells for 2 hours with freshly diluted TTF or AcA of the invention; 8. Add freshly diluted glutamate (100 micromolars); 9. Read fluorescence at 20 hr after the addition of glutamate (100 micromolars) (Ex: 485 nm and Em: 528 nm). 10. A reduction of 55% of ROS levels are indication for an anti-oxidant activity in this assay.
N2a neuronal cells were treated with glutamate (100 μM) and TTF. ROS levels were measured 20 hr later. The results are shown in FIG. 17 and are the mean±SEM of two different experiments (n=16).
N2a neuronal cells were treated with glutamate (100 μM) and achillolide A. ROS levels were measured 20 hr later. […]
Achillolide A was added to N2a cells before (−2 h, −1 h) concomitant (0) or after (1 h, 2 h) the addition of glutamate. ROS levels were measured 20 h later. […]

[2] = tested on: N2a neuronal cells; test: Aβ25-35-induced ROS elevation in N2a cells; format: cell-based; settings: Aβ25-35 25 μM, 20 hr
Protocol: 2. Plate N2a cells (10,000 cells/0.2 ml/well of 96 wells plate) in DMEM (high glucose, 225 ml), Opti-MEM (250 mil) containing 5% Fetal Bovine Serum, 2 mM L-Glutamine, 100 U/ml penicillin and 100 micrograms/mL streptomycin and incubate (37° C., 5% CO2) for 24 hr. 3. Replace the medium with a fresh one containing 20 micromolars 2′7′-dichlorofluorescein diacetate (DCF-DA); 4. Incubate 30 min (37° C., 5% CO2); 5. Wash twice with PBS; 6. Replace with fresh medium; 7. Read fluorescence of “time 0” at 485 nm (Extinction) and 528 nm (Emmision). 8. Incubate the cultured cells for 2 hours with freshly diluted TTF or AcA of the invention; 9. Add freshly diluted Aβ25-35 (25 micromolars); 10. Read fluorescence at 20 hr after the addition of Aβ25-35 (25 micromolars) (Ex: 485 nm and Em: 528 nm). 11. A reduction of 70% of ROS levels are indication for an anti-oxidant activity in this assay.
N2a neuronal cells were treated with Aβ25-35 (25 μM) and TTF. ROS levels were measured 20 hr later. The results are shown in FIG. 11 and are the mean±SEM of two different experiments (n=15).
N2a neuronal cells were treated with Aβ25-35 (25 μM) and achillolide A. Cytotoxicity (FIG. 27A) viability (FIG. 27B) and ROS levels (FIG. 27C) were measured 20 hr later. The results are the mean±SEM of two different experiments (n=16).

[3] = tested on: IL-1β; test: IL-1β secretion from LPS-stimulated microglial cells (ELISA); format: cell-based, rat; settings: LPS 100 ng/mL, 24 h
Protocol: Cultures of primary rat microglial cells were prepared from cerebral cortices of 1-2 day-old neonatal Wistar rats as described. Microglial cells were seeded at 24-well plastic plates at 1×10^5/well in RPMI-1640 containing 2% FBS, 2 mM glutamine, 100 U/mL penicillin, 100 µg/mL streptomycin, 1 mM sodium pyruvate, and 50 μM β-mercaptoethanol. Cells were cultured for 36 h before treatments. The research was conducted in accordance with the NIH guide for the care and use of laboratory animals, and was approved by the Institutional Animal Care and Use Committee of The Volcani Center, Agricultural Research Organization (IL-135/07, approval date Apr. 11, 2007). All efforts were made to minimize animal suffering, and to reduce the number of animals used.
For IL-1β measurements, 3.5×10^4 cells/well were plated on a 24-well tissue culture plate. After 24 h of incubation in DMEM containing 10% FBS, cells were stimulated with LPS (100 ng/mL) and treated with different concentrations of achillolide A. Conditioned media were collected twenty four hours later, and were tested with a rat IL1β ELISA kit (Novus Biologicals; CO, USA), according to the manufacturer's instructions.
2. Plate microglial cells (3.5×10^4 cells/well) on a 24-well tissue culture plate, in DMEM containing 10% FBS, 2 mM glutamine, 100 U/ml penicillin and 100 micrograms/mL streptomycin;
Microglial cells were treated with different concentrations of TTF, followed by stimulation with LPS (100 ng/mL). After 24 h, conditioned media were collected and tested for cytokine levels by ELISA. Cell viability was determined using the crystal violet assay (FIG. 9C). Values represent the means±SEM (n=4 for each treatment).
Microglial cells were treated with 20 μg/mL of achillolide A, followed by stimulation with LPS (4.5 ng/mL). After 5 h the levels of the indicated transcripts were measured by quantitative real-time PCR and the relative quantity (RQ) of the different transcripts were determined. […] The results are expressed as percentages relative to LPS-stimulated cells. […]

| SMILES | effect on glutamate-induced ROS elevation [1] | effect on Aβ25-35-induced ROS elevation [2] | effect on LPS-elicited IL-1β secretion [3] | inhibition of IL-1β secretion [3] [%] |
| --- | --- | --- | --- | --- |
| COc1cc(-c2oc3cc(OC)c(OC)c(O)c3c(=O)c2O)ccc1O [TTF, 3,5,4′-trihydroxy-6,7,3′-trimethoxyflavone] | prevents the elevation in ROS levels | prevents the elevation in ROS levels | markedly inhibited |  |
| C=C1CCC2=C(CO)C(=O)O[C@H]2/C=C(\C)[C@H](OC(C)=O)CC1=O [achillolide A] | prevents the elevation in ROS levels | prevents the elevation in ROS levels |  | 59 |
